# Results: US20210228484A1, “VETERINARY THICK GEL COMPOSITION OF HIGH PALATABILITY CONTAINING ANTIOXIDANTS TO DECREASE SARCOPENIA, OSTEOPENIA AND DNA DAMAGE FROM OXIDATIVE STRESS IN DOGS, AND PROCEDURE FOR ITS OBTENTION” (priority 2018, published 2021)
# System: oxidative stress
# Assay: Overall effect of the antioxidant dietary complement on oxidative stress biomarkers in dogs
# Assay type: in vivo
# Settings: provided alone
# From the text: The evaluated biomarkers let us assure that the provision of antioxidants, particularly the mixtures of at least two antioxidants selected from Resveratrol. Pterostilbene and Vitamin E, as a dietary complement had the following effects. 1) decrease of oxidative stress, 2) highly significant decrease in the loss of skeletal muscle (CPK), 3) highly significant decrease in the loss of bone mass (ALP), and 4) decrease of 12-15% in the loss of (8(OH)dG) DNA. […] It is also possible to observe that the Vitamin E that was provided alone produced a lesser effect, compared to that of the mixture of two antioxidants that were jointly provided.
structure (smiles),measurement,value
"CC(=O)Oc1c(C)c(C)c2c(c1C)CCC(C)(CCCC(C)CCCC(C)CCCC(C)C)O2 (racemic) [Vitamin E, DL-alpha tocopherol acetate]",effect on the biomarkers compared to the mixture of two antioxidants,lesser effect
